Paper PMC7504721, “Targeting the Initiator Protease of the Classical Pathway of Complement Using Fragment-Based Drug Discovery” (Molecules, 2020)

What was measured:
alternative pathway = assay: Alternative pathway-specific ELISA (LPS, 20% serum, C3b detection); assay type: biochemical, human; settings: single dose 500 µM, triplicate
Method: Figure 5 Selectivity and mechanistic analysis of CMP-1611 and CMP-1696. (A) Chemical structure of CMP-1611. (B) Chemical structure of CMP-1696. (C) Dose-dependent inhibition by CMP-1611 and CMP-1696 in a classical pathway-specific ELISA. Data were fit with GraphPad Prism using non-linear regression with a log(inhibitor) vs. response model. […] (D) Complement pathway selectivity of CMP-1611 and CMP-1696. Compounds were assessed for their ability to inhibit activation of complement via the lectin and alternative pathways using single doses of 500 µM compound in triplicate. To ensure only lectin pathway activation, 2% (v/v) C1q-depleted serum (CompTech) was used and mannan was used as the activator. To match serum sources and amounts for this assay, the classical pathway assays were repeated here using serum from CompTech at 2% (v/v) final concentration. Alternative pathway activation assays were performed using 20% (v/v) serum (CompTech), alternative pathway buffers, and C3b detection (see Methods and Materials for details). […]
To carry out classical pathway ELISA-based inhibition assays, IgM was dissolved in coating buffer (100 mM Na2CO3/NaHCO3, pH 9.6) to a final concentration of 3 µg/mL and was dispensed into 96-well plates at 100 µL per well. […] The reaction was stopped with 50 µL of 0.16 M sulfuric acid, and the plate was read at 450 nm using an EnSight multimode plate reader (Perkin-Elmer). […]

C1r = tested on: C1r; parameters: method as in PMID 10206542; settings: cited from earlier work

With `CN(C)c1cc(N2CCCC(N)C2)ncn1` (centres unmarked) [CMP-1611] the “inhibition of alternative pathway activation” value (alternative pathway) was “no effect”.

For `N=C(N)c1ccc2cc(OC(=O)c3ccc(N=C(N)N)cc3)ccc2c1` [Futhan, reference compound], the “inhibition of C1r” value (C1r) is given as “previously reported to inhibit C1r”.
